Measurements from patent EP3829579B1, “1,3,8-TRIAZASPIRO COMPOUNDS AND THEIR USE AS MEDICAMENTS FOR THE TREATMENT OF REPERFUSION INJURY” (Maria Cecilia Hospital S.p.A., priority 2018, dated 2020).

Key:
ATP synthesis = test: luciferin-luciferase assay of mitochondrial ATP; assay type: cell-based; settings: living cells, basal conditions and following Ca2+-dependent stimulus
Excerpt: (§1) The data were obtained by recording the absorbance changes at 540 nm at the tenth minute of measurement, and subsequently converted to a percentage. Black bar: untreated and unstimulated mitochondria; black control bar: untreated and Ca2+ stimulated mitochondria; dark grey bar: pre-treatment with CsA and stimulation with Ca2+; light bar: pre-treatment with RR and stimulation with Ca2+; first white bar from the top: treatment with compound 1 and stimulation with Ca2+; white bars: pre-treatment with the compounds of the invention and stimulation with Ca2+. […] The subcellular localization of compound 1 was studied by HPLC-HRMS analysis of samples from different cellular compartments, before and after treatment with the compound. […] The grey region of the HPLC spectrum corresponds to a single mass peak at [M+1]+ m/z of 386.1534 (lower panel, [M+H]+ calculated for compound 1 = 386.1533). […] The grey band of the HPLC spectrum corresponds to a mixture of mass peaks detected through the HRMS analysis (lower panel). C: HPLC-HRMS profile of the mitochondrial fraction isolated from cells pre-treated with compound 1 which clearly indicates the presence of the compound with an HPLC band at a retention time of 8.2 min (upper panel). The grey area of the signal corresponds to a mixture of mass peaks (lower panel) among which [M+1]+ m/z of 386.1534, which identifies the undetectable compound 1 in the corresponding untreated fraction (panel B). […] A: Content of mitochondrial ATP in living cells under basal conditions, evaluated based on the luciferase-luciferin protocol. B: Mitochondrial ATP production following stimulation by a Ca2+ dependent agonist. "Histamine" indicates stimulus with histamine. C: MTT cell viability assay after 24h, 48h and 72h of treatment of live cells with compounds of Formula (I) at different concentrations. In particular, black bar: cells treated with vehicle; dotted bars: compound at the concentration of 1 µM; bars with small black and white squares: compound at a concentration of 5 µM; bars with large black and white squares: compound at a concentration of 10 µM. A standardization was carried out with respect to the vehicle. […] A: Diagram depicting an experiment on an isolated rat heart by the Langendorff system. B: Coronary artery perfusion pressure (CPP) recorded on rat heart in conditions of stabilization, ischemia and reperfusion. C: Pressure developed by the left ventricle (LVPdp) recorded under the same conditions as B. D: End-diastolic pressure recorded in the same conditions as B and C. E: TUNEL apoptotic assay for the evaluation of the cardioprotective effect in cardiomyocytes of the heart.**:p value<0.01; ****:p value<0.0001.
(§2) Compounds 5c, 6g and 10 resulted to be very potent in inhibiting mPTP in the in vitro tests. In order to identify any side effects in the use of these compounds in living cells that could exclude their future development in therapy, and given the crucial role of the C subunit of the ATP synthase in energy production, two important parameters were evaluated, such as cell viability and mitochondrial ATP content, in basal conditions and following Ca^2+-dependent stimulus (Figure 5A-C).

mPTP [1] = test: mitochondrial swelling assay (absorbance at 540 nm, Ca2+ stimulation); assay type: biochemical; settings: mitochondria isolated from mouse liver, monitored for 10 minutes
Excerpt: as §1, with “E: TUNEL apoptotic assay for the evaluation of the cardioprotective effect in cardiomyocytes of the heart.**:p value<0.01; ****:p value<0.0001.” left out
Mitochondria isolated from mouse liver were checked for purity (Figure 3A) and functionality thereof, and then stimulated with Ca^2+; the decrease in absorbance at 540 nm, indicative of mitochondrial swelling, was monitored for 10 minutes.

mPTP [2] = test: cobalt-calcein assay of Ca2+-induced mPTP opening in HeLa cells (ionomycin stimulation); assay type: cell-based; settings: pre-treatment 1 µM, assessed by the kinetics slope
[3] = subcellular fractionation with HPLC-HRMS detection (subcellular localization); assay type: cell-based; settings: cells pre-treated with compound, mitochondria, cytosol and endoplasmic reticulum fractions
Excerpt: The data were obtained by recording the absorbance changes at 540 nm at the tenth minute of measurement, and subsequently converted to a percentage. Black bar: untreated and unstimulated mitochondria; black control bar: untreated and Ca2+ stimulated mitochondria; dark grey bar: pre-treatment with CsA and stimulation with Ca2+; light bar: pre-treatment with RR and stimulation with Ca2+; first white bar from the top: treatment with compound 1 and stimulation with Ca2+; white bars: pre-treatment with the compounds of the invention and stimulation with Ca2+. […] The grey region of the HPLC spectrum corresponds to a single mass peak at [M+1]+ m/z of 386.1534 (lower panel, [M+H]+ calculated for compound 1 = 386.1533). […] The grey band of the HPLC spectrum corresponds to a mixture of mass peaks detected through the HRMS analysis (lower panel). […] A: Content of mitochondrial ATP in living cells under basal conditions, evaluated based on the luciferase-luciferin protocol. […] B: Coronary artery perfusion pressure (CPP) recorded on rat heart in conditions of stabilization, ischemia and reperfusion. C: Pressure developed by the left ventricle (LVPdp) recorded under the same conditions as B. D: End-diastolic pressure recorded in the same conditions as B and C. […]

live cells = test: MTT cell viability assay; assay type: cell-based; settings: micromolar concentrations (1, 5, 10 µM); for reduction of MTT compared to the control: 24h and 48h; for effect on cell viability (MTT): after 72h
Excerpt: (§3) The data were obtained by recording the absorbance changes at 540 nm at the tenth minute of measurement, and subsequently converted to a percentage. Black bar: untreated and unstimulated mitochondria; black control bar: untreated and Ca2+ stimulated mitochondria; dark grey bar: pre-treatment with CsA and stimulation with Ca2+; light bar: pre-treatment with RR and stimulation with Ca2+; first white bar from the top: treatment with compound 1 and stimulation with Ca2+; white bars: pre-treatment with the compounds of the invention and stimulation with Ca2+. […] The subcellular localization of compound 1 was studied by HPLC-HRMS analysis of samples from different cellular compartments, before and after treatment with the compound. […] The grey region of the HPLC spectrum corresponds to a single mass peak at [M+1]+ m/z of 386.1534 (lower panel, [M+H]+ calculated for compound 1 = 386.1533). […] The grey band of the HPLC spectrum corresponds to a mixture of mass peaks detected through the HRMS analysis (lower panel). C: HPLC-HRMS profile of the mitochondrial fraction isolated from cells pre-treated with compound 1 which clearly indicates the presence of the compound with an HPLC band at a retention time of 8.2 min (upper panel). The grey area of the signal corresponds to a mixture of mass peaks (lower panel) among which [M+1]+ m/z of 386.1534, which identifies the undetectable compound 1 in the corresponding untreated fraction (panel B). […] A: Content of mitochondrial ATP in living cells under basal conditions, evaluated based on the luciferase-luciferin protocol. B: Mitochondrial ATP production following stimulation by a Ca2+ dependent agonist. "Histamine" indicates stimulus with histamine. C: MTT cell viability assay after 24h, 48h and 72h of treatment of live cells with compounds of Formula (I) at different concentrations. […] B: Coronary artery perfusion pressure (CPP) recorded on rat heart in conditions of stabilization, ischemia and reperfusion. C: Pressure developed by the left ventricle (LVPdp) recorded under the same conditions as B. D: End-diastolic pressure recorded in the same conditions as B and C. […]
as §2

[4] = tested on: release of cytochrome C (Cyt.C) from the mitochondria; test: detection of cytochrome c in the mitochondrial fraction under Ca2+-dependent stress; assay type: cell-based; settings: Ca2+-dependent stress conditions
rat isolated heart = test: isolated rat heart ischemia-reperfusion (Langendorff system), with TUNEL assay; assay type: in vivo; settings: ex vivo
Excerpt: as §3
Considering the potential of the inhibitors claimed herein in relation to: i) ability to desensitize the opening of mPTP; ii) ability to protect against cell death by inhibiting the release of Cyt.C; iii) ability to preserve cell viability, and iv) mitochondrial ATP content, the effects of compound 10 were studied in an animal model of cardiac ischemia-reperfusion. […] At the end of the procedure, the hearts were also analyzed for cell death by terminal deoxynucleotidyl transferase dUTP nick-end labelling (TUNEL) assay.

[5] = 10 µM constant-volume perfusion during the first 10 minutes of reperfusion, 30 minutes ischemia, 1 hour reperfusion

| SMILES | proton flow and ATP synthesis / ATP levels (ATP synthesis) | inhibition of Ca2+-induced mPTP opening (mitochondrial swelling, decrease in absorbance at 540 nm) (mPTP [1]) | reduction of MTT compared to the control (live cells) | effect on cell viability (MTT) (live cells) | release of Cyt.C from the mitochondria [4] | other results |
| --- | --- | --- | --- | --- | --- | --- |
| CC[C@H]1/C=C/C=C/C[C@@H](C)[C@H](O)[C@@](C)(O)C(=O)[C@@H](C)[C@H](O)[C@@H](C)C(=O)[C@@H](C)[C@H](O)[C@@H](C)/C=C/C(=O)O[C@@H]2[C@H](C)[C@H](CC1)O[C@]1(CC[C@H](C)[C@H](C[C@@H](C)O)O1)[C@H]2C [Oligomycin, reference compound] | significantly inhibited |  |  |  |  |  |
| N.N.N.N.N.N.N.N.N.N.N.N.N.N.[Cl-].[Cl-].[Cl-].[Cl-].[Cl-].[Cl-].[O-2].[O-2].[Ru+3].[Ru+3].[Ru+4] [RR, Red Ruthenium, reference compound] |  | prevented |  |  |  |  |
| Cc1ccc(S(=O)(=O)N2CCC3(CC2)C(=O)NCN3c2ccccc2)cc1 [compound 1, 1-phenyl-8-tosyl-1,3,8-triazaspiro[4.5]decan-4-one] | significantly inhibited |  |  |  |  | desensitization of the mPTP opening (mPTP [2]): about 50%; subcellular localization [3]: selective accumulation of the compound in the mitochondria |
| O=C1N=CN(c2ccc(Cl)cc2)C12CCN(Cc1ccccc1)CC2 [compound 5c, 8-benzyl-1-(4-chlorophenyl)-1,3,8-triazaspiro[4.5]dec-2-en-4-one] | did not reduce ATP levels | significantly more performing than compound 1 | did not induce a significant reduction | some negative effect | prevent the release of Cyt.C |  |
| O=C1NCN(c2cccc(C(F)(F)F)c2)C12CCN(Cc1ccccc1)CC2 [compound 6g, 8-benzyl-1-(3-(trifluoromethyl)phenyl)-1,3,8-triazaspiro[4.5]decan-4-one] | did not reduce ATP levels | significantly more performing than compound 1 |  |  | prevent the release of Cyt.C |  |
| O=C1NCN(c2ccccc2)C12CCN(S(=O)(=O)c1ccc(Cl)s1)CC2 [compound 10, 8-((5-chlorotiophen-2-yl)sulfonyl)-1-phenyl-1,3,8-triazaspiro[4.5]decan-4-one] | did not reduce ATP levels | significantly more performing than compound 1 | did not induce a significant reduction | some negative effect | prevent the release of Cyt.C | coronary perfusion pressure (CPP) (rat isolated heart; [5]): decrease; diastolic pressure (EDP) (rat isolated heart; [5]): decrease; diastolic pressure of the left ventricle (LVEDP) (rat isolated heart; [5]): increased; percentage of cardiomyocytes positive for TUNEL (apoptotic) (rat isolated heart; 10µM, hearts at the end of the procedure, 64% positive without compound): significantly reduced |
